According to ChEMBL document CHEMBL1154835, “Antimicrobial study of newly synthesized 6-substituted indolo[1,2-c]quinazolines” (2010):
Converted amounts (≈) assume the structure as drawn.

Legend:
Aspergillus niger [1] = assay: Antimicrobial activity against Aspergillus niger at 1000 ug after 72 hrs by cup plate method; assay type: functional; settings: read-out: DIZ
Klebsiella pneumoniae [2] = assay: Antimicrobial activity against Klebsiella pneumoniae at 1000 ug after 24 hrs by cup plate method; assay type: functional; settings: read-out: DIZ
Bacillus subtilis [3] = assay: Antimicrobial activity against Bacillus subtilis at 1000 ug after 24 hrs by cup plate method; assay type: functional; settings: read-out: DIZ
Staphylococcus aureus [4] = assay: Antimicrobial activity against Staphylococcus aureus at 1000 ug after 24 hrs by cup plate method; assay type: functional; settings: read-out: DIZ
Escherichia coli [5] = assay: Antimicrobial activity against Escherichia coli after 24 hrs by liquid dilution method; assay type: functional
Trichoderma viride [6] = assay: Antimicrobial activity against Trichoderma viride after 24 hrs by liquid dilution method; assay type: functional
Klebsiella pneumoniae [7] = assay: Antimicrobial activity against Klebsiella pneumoniae after 24 hrs by liquid dilution method; assay type: functional
Trichoderma viride [8] = assay: Antimicrobial activity against Trichoderma viride at 1000 ug after 72 hrs by cup plate method; assay type: functional; settings: read-out: DIZ
Aspergillus niger [9] = assay: Antimicrobial activity against Aspergillus niger after 24 hrs by liquid dilution method; assay type: functional
Salmonella enterica [10] = assay: Antimicrobial activity against Salmonella Typhimurium at 1000 ug after 24 hrs by cup plate method; assay type: functional, Salmonella enterica subsp. enterica serovar Typhimurium; settings: read-out: DIZ
Candida albicans [11] = assay: Antimicrobial activity against Candida albicans after 24 hrs by liquid dilution method; assay type: functional
Staphylococcus aureus [12] = assay: Antimicrobial activity against Staphylococcus aureus after 24 hrs by liquid dilution method; assay type: functional
Streptococcus pyogenes [13] = assay: Antimicrobial activity against Streptococcus pyogenes after 24 hrs by liquid dilution method; assay type: functional
Streptococcus pyogenes [14] = assay: Antimicrobial activity against Streptococcus pyogenes at 1000 ug after 24 hrs by cup plate method; assay type: functional; settings: read-out: DIZ
Candida albicans [15] = assay: Antimicrobial activity against Candida albicans at 1000 ug after 72 hrs by cup plate method; assay type: functional; settings: read-out: DIZ
Salmonella enterica [16] = assay: Antimicrobial activity against Salmonella Typhimurium after 24 hrs by liquid dilution method; assay type: functional, Salmonella enterica subsp. enterica serovar Typhimurium
Escherichia coli [17] = assay: Antimicrobial activity against Escherichia coli at 1000 ug after 24 hrs by cup plate method; assay type: functional; settings: read-out: DIZ
Bacillus subtilis [18] = assay: Antimicrobial activity against Bacillus subtilis after 24 hrs by liquid dilution method; assay type: functional

SMILES | zone of inhibition at 1000 µg/disc (Aspergillus niger [1]) | zone of inhibition at 1000 µg/disc (Klebsiella pneumoniae [2]) | zone of inhibition at 1000 µg/disc (Bacillus subtilis [3]) | zone of inhibition at 1000 µg/disc (Staphylococcus aureus [4]) | MIC (Escherichia coli [5]) | MIC (Trichoderma viride [6]) | MIC (Klebsiella pneumoniae [7]) | zone of inhibition at 1000 µg/disc (Trichoderma viride [8]) | MIC (Aspergillus niger [9]) | zone of inhibition at 1000 µg/disc (Salmonella enterica [10]) | MIC (Candida albicans [11]) | MIC (Staphylococcus aureus [12]) | MIC (Streptococcus pyogenes [13]) | zone of inhibition at 1000 µg/disc (Streptococcus pyogenes [14]) | zone of inhibition at 1000 µg/disc (Candida albicans [15]) | MIC (Salmonella enterica [16]) | zone of inhibition at 1000 µg/disc (Escherichia coli [17]) | MIC (Bacillus subtilis [18])
c1ccc2cc(-c3nc4ccccc4c4cc5ccccc5n34)c(-c3nc4ccccc4c4cc5ccccc5n34)cc2c1 | 17 mm | 35 mm | 45 mm | 50 mm | 35 mg/L (≈ 62.4 µM) | 30 mg/L (≈ 53.5 µM) | 20 mg/L (≈ 35.7 µM) | 12 mm | 35 mg/L (≈ 62.4 µM) | 14 mm | 25 mg/L (≈ 44.6 µM) | 5 mg/L (≈ 8.92 µM) | 15 mg/L (≈ 26.8 µM) | 39 mm | 16 mm | 35 mg/L (≈ 62.4 µM) | 12 mm | 15 mg/L (≈ 26.8 µM)
c1ccc2c(c1)cc1c3ccccc3nc(-c3ccc(Oc4ccc(-c5nc6ccccc6c6cc7ccccc7n56)cc4)cc3)n21 | 10 mm | 21 mm | 14 mm | 18 mm |  |  |  | 18 mm |  | 11 mm |  |  |  | 13 mm | 9 mm |  | 14 mm | 
c1ccc(-c2nc3ccccc3c3cc4ccccc4n23)c(-c2nc3ccccc3c3cc4ccccc4n23)c1 | 20 mm | 14 mm | 40 mm | 52 mm | 20 mg/L (≈ 39.2 µM) | 35 mg/L (≈ 68.5 µM) | 30 mg/L (≈ 58.8 µM) | 18 mm | 20 mg/L (≈ 39.2 µM) | 18 mm | 35 mg/L (≈ 68.5 µM) | 5 mg/L (≈ 9.79 µM) | 20 mg/L (≈ 39.2 µM) | 46 mm | 13 mm | 25 mg/L (≈ 49 µM) | 16 mm | 20 mg/L (≈ 39.2 µM)
c1cc(-c2nc3ccccc3c3cc4ccccc4n23)cc(-c2nc3ccccc3c3cc4ccccc4n23)c1 | 12 mm | 18 mm | 46 mm | 51 mm | 10 mg/L (≈ 19.6 µM) | 25 mg/L (≈ 49 µM) | 35 mg/L (≈ 68.5 µM) | 21 mm | 30 mg/L (≈ 58.8 µM) | 35 mm | 30 mg/L (≈ 58.8 µM) | 5 mg/L (≈ 9.79 µM) | 15 mg/L (≈ 29.4 µM) | 48 mm | 15 mm | 20 mg/L (≈ 39.2 µM) | 20 mm | 15 mg/L (≈ 29.4 µM)
c1ccc2c(c1)cc1c3ccccc3nc(-c3ccc(-c4nc5ccccc5c5cc6ccccc6n45)cc3)n21 | 12 mm | 13 mm | 14 mm | 25 mm |  |  |  | 9 mm |  | 11 mm |  |  |  | 18 mm | 21 mm |  | 16 mm | 
COc1ccc2[nH]cc(-c3nc4ccccc4c4cc5ccccc5n34)c2c1 | 49 mm | 46 mm | 49 mm | 50 mm | 5 mg/L (≈ 13.8 µM) | 10 mg/L (≈ 27.5 µM) | 5 mg/L (≈ 13.8 µM) | 49 mm | 10 mg/L (≈ 27.5 µM) | 42 mm | 15 mg/L (≈ 41.3 µM) | 5 mg/L (≈ 13.8 µM) | 10 mg/L (≈ 27.5 µM) | 39 mm | 48 mm | 5 mg/L (≈ 13.8 µM) | 50 mm | 5 mg/L (≈ 13.8 µM)
Cc1ccc2[nH]cc(-c3nc4ccccc4c4cc5ccccc5n34)c2c1 | 50 mm | 48 mm | 42 mm | 52 mm | 2.5 mg/L (≈ 7.2 µM) | 5 mg/L (≈ 14.4 µM) | 2.5 mg/L (≈ 7.2 µM) | 46 mm | 2.5 mg/L (≈ 7.2 µM) | 46 mm | 20 mg/L (≈ 57.6 µM) | 5 mg/L (≈ 14.4 µM) | 5 mg/L (≈ 14.4 µM) | 45 mm | 51 mm | 5 mg/L (≈ 14.4 µM) | 42 mm | 10 mg/L (≈ 28.8 µM)
c1ccc2c(c1)cc1c3ccccc3nc(-c3csc4ccccc34)n21 | 52 mm | 50 mm | 51 mm | 55 mm | 2.5 mg/L (≈ 7.13 µM) | 2.5 mg/L (≈ 7.13 µM) | 5 mg/L (≈ 14.3 µM) | 49 mm | 2.5 mg/L (≈ 7.13 µM) | 50 mm | 10 mg/L (≈ 28.5 µM) | 2.5 mg/L (≈ 7.13 µM) | 5 mg/L (≈ 14.3 µM) | 48 mm | 45 mm | 2.5 mg/L (≈ 7.13 µM) | 48 mm | 2.5 mg/L (≈ 7.13 µM)
c1ccc2c(c1)cc1c3ccccc3nc(-c3ccc(-c4ccncc4)cc3)n21 | 22 mm | 42 mm | 48 mm | 50 mm | 25 mg/L (≈ 67.3 µM) | 25 mg/L (≈ 67.3 µM) | 30 mg/L (≈ 80.8 µM) | 21 mm | 25 mg/L (≈ 67.3 µM) | 25 mm | 30 mg/L (≈ 80.8 µM) | 5 mg/L (≈ 13.5 µM) | 15 mg/L (≈ 40.4 µM) | 42 mm | 18 mm | 20 mg/L (≈ 53.8 µM) | 35 mm | 10 mg/L (≈ 26.9 µM)
c1ccc2c(c1)cc1c3ccccc3nc(-c3c[nH]c4ccccc34)n21 | 46 mm | 49 mm | 46 mm | 51 mm | 2.5 mg/L (≈ 7.5 µM) | 2.5 mg/L (≈ 7.5 µM) | 5 mg/L (≈ 15 µM) | 50 mm | 10 mg/L (≈ 30 µM) | 48 mm | 5 mg/L (≈ 15 µM) | 2.5 mg/L (≈ 7.5 µM) | 2.5 mg/L (≈ 7.5 µM) | 49 mm | 49 mm | 2.5 mg/L (≈ 7.5 µM) | 52 mm | 15 mg/L (≈ 45 µM)
CC1(C)S[C@@H]2[C@H](NC(=O)[C@H](N)c3ccccc3)C(=O)N2[C@H]1C(=O)O [AMPICILLIN] |  | 45 mm | 39 mm | 48 mm | 5 mg/L (≈ 14.3 µM) |  | 10 mg/L (≈ 28.6 µM) |  |  | 45 mm |  | 10 mg/L (≈ 28.6 µM) | 25 mg/L (≈ 71.5 µM) | 35 mm |  | 10 mg/L (≈ 28.6 µM) | 40 mm | 20 mg/L (≈ 57.2 µM)
CC(=O)N1CCN(c2ccc(OCC3COC(Cn4ccnc4)(c4ccc(Cl)cc4Cl)O3)cc2)CC1 (stereo not given) [KETOCONAZOLE] | 45 mm |  |  |  |  | 20 mg/L (≈ 37.6 µM) |  | 41 mm | 15 mg/L (≈ 28.2 µM) |  | 25 mg/L (≈ 47 µM) |  |  |  | 40 mm |  |  | 
